Data from US7189754B2, “Pyrrolidine ester derivatives with oxytocin modulating activity” (Applied Research Systems ARS Holding NV, priority 2001, dated 2007).

Biological target: T1, human Oxytocin (hOT) receptor (Homo sapiens, UniProt P30559)
T1 construct: expressed in transfected cells; host or cells: HEK293EBNA
T1 sequence (P30559 1-389): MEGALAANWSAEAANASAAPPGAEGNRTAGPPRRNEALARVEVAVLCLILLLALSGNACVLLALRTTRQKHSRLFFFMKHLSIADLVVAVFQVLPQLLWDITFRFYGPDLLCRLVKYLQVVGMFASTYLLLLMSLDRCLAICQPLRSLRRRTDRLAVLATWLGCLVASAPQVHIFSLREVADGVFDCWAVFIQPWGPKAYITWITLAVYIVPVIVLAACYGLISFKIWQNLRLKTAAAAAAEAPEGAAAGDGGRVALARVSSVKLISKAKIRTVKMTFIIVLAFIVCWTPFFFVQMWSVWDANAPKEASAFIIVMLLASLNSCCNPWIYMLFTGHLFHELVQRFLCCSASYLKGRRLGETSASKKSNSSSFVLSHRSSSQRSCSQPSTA
Experiment: In vitro competition binding assay on hOT receptor with scintillation proximity assay ([125I]-OVTA)
Settings: HEK293EBNA membranes expressing hOT receptor, 0.2 nM [125I]-OVTA, SPA; read-out: Binding affinity human OT-R IC50
Experimental: a) In Vitro Competition Binding Assay on hOT Receptor with Scintillation Proximity Assay (see Cook, N. D. et al. Pharmaceutical Manufacturing International 1992; p.49–53)
This assay allows to determine the affinity of the test compounds for the human Oxytocin (hOT) receptor. Membranes from HEK293EBNA (cells expressing the hOT receptor) were suspended in buffer containing 50 mM Tris-HCl, pH 7.4, 5 mM MgCl2 and 0.1% BSA (w/v). The membranes (2–4 μg) were mixed with 0.1 mg SPA bead coated with wheat-germ aglutinin (WGA-PVT-Polyethylene Imine beads from Amersham) and 0.2 nM of the radiolabelled [^125I]-OVTA (OVTA being Ornithin Vasoactive, an analogue of OT for competitive binding experiments). Non-specific binding was determined in the presence of 1 μM Oxytocin. The total assay volume was 100 μl. The plates (Corning® NBS plate) were incubated at room temperature for 30 min and counted on a Mibrobeta® plate scintillation counter. Competitive binding was performed in presence of compounds of formula (I) at the following concentrations: 30 μM, 10 μM, 1 μM, 300 nM, 100 nM, 10 nM, 1 nM, 100 pM, 10 pM. The competitive binding data were analysed using the iterative, nonlinear, curve-fitting program, “Prism” (GraphPad Software, Inc).
The ability of the pyrrolidine derivatives of formula (I) to inhibit the binding of ^125I-OVTA to the OT-receptor was assessed using the above described in vitro biological assay. Representative values for some example compounds are given in Table 1, where the binding affinity of the compounds is expressed by the IC50 (μM) which is the concentration upon which 50% inhibition of OT-R is achieved. From these values, it can be derived that said test compounds according to formula (I) do show a significant binding to the oxytocin receptor.

| IC50 [nM] | Structure (SMILES) |
| --- | --- |
| 45 | CON=C1C[C@@H](C(=O)OC)N(C(=O)c2ccc(-c3ccccc3)cc2)C1 (mixture of isomers) [Methyl (2S,4EZ)-1-([1,1′-biphenyl]-4-ylcarbonyl)-4-(methoxyimino)-2-pyrrolidinecarboxylate] |
| 100 | CON=C1C[C@@H](C(=O)OC)N(C(=O)c2ccc(-c3ccccc3F)cc2)C1 (mixture of isomers) [Methyl (2S,4EZ)-4-(methoxyimino)-1-[(2′-fluoro[1,1′-biphenyl]-4-yl)carbonyl]-2-pyrrolidinecarboxylate] |
| 28 | CON=C1C[C@@H](C(=O)OC)N(C(=O)c2ccc(-c3ccccc3C)cc2)C1 [Methyl (2S,4EZ)-4-(methoxyimino)-1-[(2′-methyl[1,1′-biphenyl]-4-yl)carbonyl]-2-pyrrolidinecarboxylate] |
